Literature values as cited in patent US7902399B2, “Fatty acids analogous” (Thia Medica AS, priority 2000, dated 2011).

Details: rat

Compound: CCCCCCCCCCCCCCSCC(=O)O [TTA]
- metabolite formation in vivo (Δ9-desaturase): a desaturated product of TTA is formed in vivo
